SMILES strings stand for the structures.

Consider two molecules from patent publication US20220105093A1, “PHARMACEUTICAL COMPOSITIONS AND COMBINATIONS COMPRISING INHIBITORS OF THE ANDROGEN RECEPTOR AND USES THEREOF” (ESSA Pharma, Inc., priority 2020, published 2022).

For data set [1], the system named is androgen responsive genes in LNCaP cells. As to the kind of experiment: mRNA expression of androgen responsive genes in LNCaP cells (NanoString AR/Prostate Cancer gene panel).
Data set [2] can be described thus: In vivo pharmacokinetics in plasma after oral gavage. To be noted: mouse, male CD-1 mice. As to the method: The purpose of this study is to determine the pharmacokinetics of the tested compounds in plasma, following oral gavage administration (PO) to male CD-1 mice.
Animal Husbandry: Animals were group housed during acclimation and the study. The animal room environment were controlled (target conditions: temperature 18 to 26° C., relative humidity 30 to 70%, 12 hours artificial light and 12 hours dark). Temperature and relative humidity were monitored daily. Animals were fasted at least 12 hours prior to the administration. All animals had access to Certified Rodent Diet ad libitum 4 hours post dosing.
Dose Formulation: prepared 85-100 μL of a stock solution of representative compounds of the disclosure in DMSO at 50 mM; 1.5% v/v of Tween 80 were added and mixed gently; 95.5% v/v saline was added gently to the organic phase. The solution was mixed slowly by reverse pipetting to get a clear solution.
Dose Administration: the dose formulations were administered via oral gavage per facility SOPs. The dose volume were determined by the animals' body weight collected on the morning of dosing day
Sample Collection: blood collection (about 0.05 mL per time point) was performed from saphenous vein of each animal into polypropylene tubes at each timepoints (0, 0.25, 0.5, 1, 2, 4, 8, 12, and 24 hr). All blood samples were transferred into pre-chilled tubes containing 2 μL of K2-EDTA (0.5M) and placed on wet ice until centrifugation. Each collected blood sample was in the wet-ice before centrifugation. Each collected blood was under centrifugation for 15 minutes at 4° C. and 3000 g for plasma collection. Plasma samples were stored in polypropylene tubes, quickly frozen over dry ice and kept at −70±10° C. until LC/MS/MS analysis.
Bioanalytical analysis: A LC-MS/MS method for the quantitative determination of tested compound in biological matrix were developed under non-GLP compliance. A calibration curve with at least 7 non-zero calibration standards were applied for the method including LLOQ.
Plasma concentration versus time data were analyzed by non-compartmental approaches using the Phoenix WinNonlin 6.3 software program. Cl, Vdss, C0, Cmax, Tmax, T½, AUC(0-t), AUC(0-inf), MRT(0-t), MRT(0-inf), % F (oral availability) and graphs of plasma concentration versus time profile were reported.

Data set [3] concerns androgen responsive genes in VCaP cells. As to the kind of experiment: mRNA expression of androgen responsive genes in VCaP cells (RNAseq). The class given is cell-based. As for the experimental part:
Relative mRNA expression in VCaP was measured to assess response of Compound A, enzalutamide (Enza), apalutamide (Apa), or darolutamide (Daro) alone or Compound A in combination with Enza, Apa, or Daro, in androgen responsive genes.

Where [4] appears, read: enzalutamide in plasma, single PO dose 15.0 mg/kg, single agent or with Compound A.
The mark [5] stands for this setting: Compound A in plasma, single PO dose 60.00 mg/kg, single agent or with enzalutamide.

Consider `CNC(=O)c1ccc(N2C(=S)N(c3ccc(C#N)c(C(F)(F)F)c3)C(=O)C2(C)C)cc1F` [Enzalutamide, enzalutamide, reference compound], for which, in data set [1] (LNCaP, 7.5 μM), the “Log2Fold Change CDC6” value was −1.20, the “Log2Fold Change ERRFl1” value is listed as −4.51 and the “Log2Fold Change SNAl2” value is given as −3.97. In data set [2] (setting [4]), the exposure AUC(0-t) worked out at 388 µg·h/mL, the Cmax was determined as 21100 ng/mL and the time to peak (Tmax) stood at 9 h.
Regarding `CC(C)(c1ccc(OCc2ccnc(NS(C)(=O)=O)n2)cc1)c1cc(Cl)c(OCCCl)c(C#N)c1` [Compound A, N-(4-((4-(2-(3-chloro-4-(2-chloroethoxy)-5-cyanophenyl)propan-2-yl)phenoxy)methyl)pyrimidin-2-yl)methanesulfonamide], in data set [1] (LNCaP cells (FIG. 6A)), the “Relative mRNA expression of androgen response genes FKBP5, TMPRSS2, KLK2, KLK3, and NKX3.1” value was “dose-dependent response”. Moreover, in data set [1] (LNCaP, 7.5 μM), the “Log2Fold Change ERRFl1” value is recorded as −2.76 and the “Log2Fold Change SNAl2” value is reported as −1.79. For the same molecule, the “inhibition of canonical AR dependent genes” value in data set [3] (Compound A at 10 μM in combination with the 'lutamides (FIGS. 11A, 11B)) was “superior inhibition of responsive genes”. The “synergy on androgen responsive gene expression” value in data set [3] (Compound A at 10 μM with Enza, Apa or Daro, R1881 stimulation (FIG. 10)) was “can synergize with Enza, Apa, and Daro”. In data set [2] (setting [5]), the AUC(0-t) came to 483 µg·h/mL, the highest level (Cmax) was 41700 ng/mL and the time of peak concentration (Tmax) stood at 4 h. Besides, the half-life in data set [2] (Compound A in plasma, single PO dose 60.00 mg/kg, single agent or with enzalutamide, read-out: T½ (converted)) was 5.4 h.

Broadly, the AUC(0-t) is exposure summed from dosing to a finite time, without extrapolation to infinity. By Cmax is commonly meant the highest concentration seen after dosing. What is called Tmax is the time from dosing to the highest level.
